Results on eleven substances are retold here after patent US9701716B2, “Water buffalo derived dimeric peptide containing proline for antibiotic therapies” (Centaur, Inc., priority 2014, dated 2017).

Where two headings read alike, the source gives them in different places. No end group written: not given here.

The subject of assay [1] is Staphylococcus aureus. It counts as cell-based. The protocol: Additional antimicrobial agents were evaluated for antimicrobial activity, including 23 computationally-derived analogues of SEQ ID NO: 3. These analogues were grouped into two functional series, including those synthesized for improved helicity (Table 2; A-P) and those synthesized for enhanced activity (Table 2; IND, Q-T, and W-X). The antimicrobial activity of the synthetic analogues provided in Table 2 were evaluated using standard techniques such as those described in Sang, et al. 2007 Dev. Comp. Immunol., and herein incorporated by reference. […] The additional antimicrobial agent analogs optimized for helical stability in Example 2 (Table 3) were evaluated for antimicrobial activity. The antimicrobial activity of the synthetic analogues provided in Table 3 were evaluated using standard techniques such as those described in Sang, et al. 2007 Dev. Comp. Immunol., and herein incorporated by reference.

Assay [2] relates to Streptococcus dysgalactiae. Type of assay: cell-based. The protocol:
(§1) The antimicrobial agents disclosed are derivatives of SEQ. ID. NO.: 3, having 14 amino acids and a broad spectrum of antimicrobial activity. The antimicrobial agents of the disclosure were synthesized and analyzed to evaluate antimicrobial activity. Initially, the antimicrobial agent of SEQ ID NO.: 3 was evaluated for inhibition of clinical isolates of common mastitis pathogens (Table 1).
(§2) The additional antimicrobial agent analogs optimized for helical stability in Example 2 (Table 3) were evaluated for antimicrobial activity. The antimicrobial activity of the synthetic analogues provided in Table 3 were evaluated using standard techniques such as those described in Sang, et al. 2007 Dev. Comp. Immunol., and herein incorporated by reference.
(§3) The antimicrobial activity of SEQ ID NO. 8 was further evaluated against clinical isolates of mastitis-causing bacteria (Table 5).

Assay [3] deals with Staphylococcus aureus. Type of assay: cell-based. The protocol: as §1, §2, §3
This is another data set of the same source.

The test system of the next assay is Klebsiella pneumoniae. Type of assay: cell-based. The protocol:
as §1, §2, §3

The next assay has as its system Corynebacterium species. Description: MIC against clinical isolates of mastitis pathogens. It counts as cell-based. Conditions: clinical isolate 404-C18, Corynebacterium species, multidrug resistance ++. The protocol: as §1, §2, §3
The subject of another assay is Escherichia coli. It counts as cell-based. The method, then: as §2, §3
The subject of assay [4] is Staphylococcus aureus. Description: Mastitis mouse model, CFU in mammary glands. It counts as in vivo, Balb/c mice. The conditions noted are these: 32 μg per gland intra-mammarily, every 24 hrs for 3 days from 24 hours post-infection; Kruskal-Wallis with Dunn's post-test, 5% level of significance. The protocol:
The antimicrobial agent of SEQ ID NO: 8 was evaluated using an in vivo model of bacterial infection to assess the antimicrobial activity of the agent. The following methods and materials were used.
Staphylococcus aureus was isolated from milk from dairy cows with clinical mastitis (Livestock Disease Diagnostic Center, University of Kentucky. Lexington, Ky.). Upon arrival, bacteria were striped on blood agar plates (TSA+5% sheep blood from Remel, Kansas City. Mo.) and cultured at 37° C. for 24 hrs. A fresh single bacterial colony picked from the agar plate was inoculated into 10 ml of Muller Hinton II broth (MHB) and cultured at 37° C. for 4-6 hrs. until reaching an absorbance of 0.8 with a 625 nm spectrophotometer filter. At this absorbance, the MHB has been documented to contain 1×10^5 colony forming units (CFU) in a 50 μl volume.
For the experiment, 56 female Balb/c mice (BW˜[…]) at 7-10 days of lactation were used. Four groups of n=14 mice were used for each experiment as described below. For intramammary inoculation the protocol described by Chandler was followed (J. Med. Microbiol. V3; 273-282: 1970) with minor modifications. […]
All mice were euthanized (using CO2) following the AVMA euthanasia guidelines 24 hours after the last treatment. […] Dilutions (10^−1, 10^−2, and 10^−3) of the homogenates were plated quantitatively to determine the number of CFU per gland. […]

[5] abbreviates: Staphylococcus aureus, first duplicate.
[6] abbreviates: Staphylococcus aureus, second duplicate.

Consider “GLARILLRLLFFRG [WB14-F1, GLARILLRLLFFRG]”, for which, in the assay with Staphylococcus aureus [1], the MIC duplicates is listed as 8.0,8.0 μg/ml.
“GLARILLRLLFRFG (Antimicrobial peptide sequence) [WB14-N1, antimicrobial agent optimized for helical stability]”: the MIC duplicates in the assay on Staphylococcus aureus [1] (setting [5]) and with Staphylococcus aureus [1] (setting [6]) was 128,128 μg/ml each time.
Turning to GLARILLRWLFRFG [WB14-N, GLARILLRWLFRFG], in the assay on Staphylococcus aureus [1], the MIC duplicates is given as 4.0,4.0 μg/ml.
A word on the MIC: it is the least concentration at which growth counts as inhibited. Read a high MIC as a need for much substance. Take GLPWILLRWLFFRG [WB14-A, GLPWILLRWLFFRG]: the minimal inhibitory concentration (MIC) in assay [2] was 12.5 µM; against Staphylococcus aureus [3], 25.0 µM; with Klebsiella pneumoniae it was 25.0 µM.
“GLTRILLRLLLRFG (Antimicrobial peptide sequence) [WB14-O4, antimicrobial agent optimized for helical stability]”: the MIC duplicates in the assay on Staphylococcus aureus [1] (setting [5]) and against Staphylococcus aureus [1] (setting [6]) was 256,256 μg/ml each time.
For the substance “GLVRILLRLLFRFG (Antimicrobial peptide sequence) [WB14-O1, antimicrobial agent optimized for helical stability]”, the MIC duplicates amounted to 64 µg/mL against Staphylococcus aureus [1] (setting [5]) and 128 µg/mL in the assay with Staphylococcus aureus [1] (setting [6]).
The matching figures for “GLVRILLRLLLRFG (Antimicrobial peptide sequence) [WB14-O2, antimicrobial agent optimized for helical stability]”: 256 µg/mL and 128 µg/mL.
For the substance “GLVRILLRLLLRFS [WB14-O6, GLVRILLRLLLRFS]”, the MIC duplicates in the assay with Staphylococcus aureus [1] is recorded as >256, >256 μg/ml.
In the case of “GLVRILLRLLLRYG (Antimicrobial peptide sequence) [WB14-O5, antimicrobial agent optimized for helical stability]”, the MIC duplicates in the assay on Staphylococcus aureus [1] (setting [5]) turned out to be 64 µg/mL; against Staphylococcus aureus [1] (setting [6]), 128 µg/mL.
Turning to “H-GLARILLRWLFFRG-OH [WB14-F, GLARILLRWLFFRG]”, the minimum inhibitory concentration (MIC) against Corynebacterium species came out at 16.0 µg/mL; in assay [2] it was 8.0 µg/mL; in the assay with Klebsiella pneumoniae, 16.0 µg/mL; against Escherichia coli, 4.0 µg/mL. The “antimicrobial activity compared with other peptides (in words)” value in the assay with Staphylococcus aureus [1] (Staphylococcus aureus MIC comparison) is on record as “most efficacious antimicrobial synthetic peptide”. Moreover, the “colony forming units (CFU) per mammary gland versus control groups” value with Staphylococcus aureus [4] is listed as “a difference between the WB-14F versus the three control groups”.
With “SLVRILLRLLLRFG (Antimicrobial peptide sequence) [WB14-O3, antimicrobial agent optimized for helical stability]”, the MIC duplicates in the assay on Staphylococcus aureus [1] (setting [5]) and in the assay on Staphylococcus aureus [1] (setting [6]) was 128,128 μg/ml each time.
